Data: patent US10588866B2, “Stable solid lipid particle composition for improved bioavailability of lipophilic compounds for age-related diseases” (VERDURE SCIENCES, priority 2014, dated 2020)

Assay: Single oral dose pharmacokinetics of curcumin in plasma and mesenteric lymph
Format: in vivo, Sprague-Dawley rats
Details: Sprague-Dawley, rat, plasma, 75 mg/kg
Description: Prior to treatment, the rats were anaesthetized followed by a surgical intervention to cannulate the mesenteric mesenteric lymph duct (for lymph collection) and the carotid artery (for blood collection). The cannulas were externalized and the rats were allowed to recover for 24 hours. Thereafter, either the curcumin suspension or the SLCP dosage form was administered via gavage. Blood (0.25 ml) was sampled prior to and 0.5, 1.0, 2.0, 3.0 and 5.0 hours after administration into vials coated with EDTA. Blood samples were centrifuged to obtain plasma and stored at <−30° C. until analysis. Mesenteric lymph (0.25 ml) was collected prior to and 1 and 5 hours after administration into vials coated with EDTA and stored at <−30° C. until analysis.
Analysis of curcumin and glucuronated curcumin was performed by HPLC with UV-detection coupled to MS according to published methods. […] The Limit of Determination was set to 2.5 ng/ml biological fluid.

## COc1cc(/C=C/C(=O)CC(=O)/C=C/c2ccc(O)c(OC)c2)ccc1O [Standard, Curcumin]
  AUC(0-t): 562 ng·h/mL
  Cmax: 190 ng/mL
